The values that follow come from patent publication US5736356A, “Transglutaminase originating from Crassostrea gigas” (Ajinomoto Co., Inc., priority 1994, dated 1998).

Entries after “also recorded” stand apart in the source; their conditions may differ. Read-outs that look alike come from different tables or passages of the source. Residues, ends and D or L forms follow the SMILES beside them. No end group written: not given here. *: point of attachment. Cbz = O=C(OCc1ccccc1)*

What all share (assay type): biochemical
The target in data set [1] is T1, purified transglutaminase originating from Crassostrea gigas (Magallana gigas, UniProt A0A8W8K4D7).
T1 construct: Met-less mature form starts […]; recombinant enzyme from E. coli or yeast reported equivalent
The conditions noted are these: final concentration 1 mM; for Residual Activity: treated at 25° C. for 10 minutes, reaction 37° C. 30 minutes. The method, then: The activity of the transglutaminase is determined by reacting the enzyme with dimethylated casein and monodansylcadaverine as substrates and measuring an increase in the fluorescent intensity of casein due to the incorporation of monodansylcadaverine into the dimethylated casein. The composition of the reaction solution is as follows:
To 2.4 ml of the foregoing reaction solution, there is added 20 to 50 μl of the transglutaminase solution followed by carrying out the reaction at 37° C. for 30 min, terminating the reaction by addition of 100 μl of a 500 mM EDTA solution and then determining the fluorescent intensity of the reaction solution (using a device: RF-1500 available from Shimadzu Corporation; excitation wavelength: 350 nm; wavelength of emitted fluorescent rays: 480 nm). In respect of the unit of the activity, that required for increasing the fluorescent intensity by 1.0 within one minute is herein defined to be one unit.
The purified transglutaminase was treated at a temperature of 25° C. for 10 minutes while adding each of a variety of enzyme activity-inhibitory agents and each metal ion in such an amount that the final concentration thereof was equal to 1 mM and then the reaction was carried out at a temperature of 37° C. for 30 minutes using dimethylated casein and monodansylcadaverine as substrates.

Data set [2] has as its target T1, purified transglutaminase originating from Crassostrea gigas. The conditions noted are these: synthetic substrate and hydroxylamine. An excerpt:
The inventors have investigated the enzyme activity of the purified transglutaminase using a variety of synthetic substrates and hydroxylamine.

In data set [3] the test system is dimethylated casein and monodansylcadaverine. The data set is described as follows: Effect of NaCl and Ca2+ on enzyme activity. The conditions noted are these: increasing NaCl concentration.

T1 sequence (A0A8W8K4D7 entry or part of it with the stated changes): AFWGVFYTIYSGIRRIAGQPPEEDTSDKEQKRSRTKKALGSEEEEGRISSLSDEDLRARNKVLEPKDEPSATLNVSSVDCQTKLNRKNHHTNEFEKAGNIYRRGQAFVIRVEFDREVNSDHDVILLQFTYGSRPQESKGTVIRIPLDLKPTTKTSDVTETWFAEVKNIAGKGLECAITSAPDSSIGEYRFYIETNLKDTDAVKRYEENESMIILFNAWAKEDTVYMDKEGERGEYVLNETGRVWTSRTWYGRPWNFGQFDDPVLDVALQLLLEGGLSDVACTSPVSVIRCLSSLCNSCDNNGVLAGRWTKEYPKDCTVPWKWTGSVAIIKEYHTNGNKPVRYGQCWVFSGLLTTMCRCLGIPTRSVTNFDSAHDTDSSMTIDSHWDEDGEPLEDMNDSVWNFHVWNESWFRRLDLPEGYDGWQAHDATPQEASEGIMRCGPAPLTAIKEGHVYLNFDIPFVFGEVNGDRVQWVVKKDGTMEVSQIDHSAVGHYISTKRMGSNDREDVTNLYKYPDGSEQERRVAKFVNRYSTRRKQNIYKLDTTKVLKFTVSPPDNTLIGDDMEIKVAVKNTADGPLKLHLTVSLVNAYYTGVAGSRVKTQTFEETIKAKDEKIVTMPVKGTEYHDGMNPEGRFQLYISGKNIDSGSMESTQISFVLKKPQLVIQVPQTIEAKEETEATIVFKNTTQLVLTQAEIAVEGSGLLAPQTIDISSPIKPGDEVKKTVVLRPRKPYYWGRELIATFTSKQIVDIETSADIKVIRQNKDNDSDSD

As for `[Ba+2]` [Ba^2+], in data set [1], the “enzyme activity-inhibitory effect (in words)” value is “almost no enzyme activity-inhibitory effect” and the “Residual Activity” value came to 102%.

As for `NC(=O)C[C@H](NC(=O)OCc1ccccc1)C(=O)NCC(=O)O` [CBZ-Asn-Gly, benzyloxycarbonyl asparaginyl glycine] (Cbz-Asn-Gly-OH), the “enzyme activity with synthetic substrate (in words)” value is on record as “did not catalyze the reaction” in data set [2] and “did not show any enzyme activity” in data set [2] (listed as benzyloxycarbonyl asparaginyl glycine).

With `NC(=O)CC[C@H](NC(=O)OCc1ccccc1)C(=O)O` [CBZ-Gln, benzyloxycarbonyl glutamine], the “enzyme activity with synthetic substrate (in words)” value in data set [2] is “did not catalyze the reaction”; in data set [2] (listed as benzyloxycarbonyl glutamine), “did not show any enzyme activity”. `NC(=O)CC[C@H](NC(=O)OCc1ccccc1)C(=O)NCC(=O)O` [CBZ-Gln-Gly, benzyloxycarbonyl glutaminyl glycine] (Cbz-Gln-Gly-OH): the “enzyme activity with synthetic substrate (in words)” value is “catalyzed the reaction” in data set [2] and “showed the enzyme activity” in data set [2] (listed as benzyloxycarbonyl glutaminyl glycine). For `CCOC(=O)CNC(=O)[C@H](CCC(N)=O)NC(=O)OCc1ccccc1` [CBZ-Gln-Gly-OEt] (Cbz-Gln-Gly-OEt), in data set [2], the “enzyme activity with synthetic substrate (in words)” value is on record as “catalyzed the reaction”. Turning to `[Co+2]` [Co^2+], in data set [1], the “enzyme activity-inhibitory effect (in words)” value was “strongly inhibited the enzyme activity” and the “Residual Activity” value came to 54.3%. The like results for `[Cu+2]` [Cu^2+] were, in that order, “strongly inhibited the enzyme activity; also recorded: extremely high; also recorded: inhibited” and 8.8%. The like results for `[Mg+2]` [Mg^2+] were, in that order, “almost no enzyme activity-inhibitory effect” and 98.2%. With `[Mn+2]` [Mn^2+], the “Residual Activity” value in data set [1] was 84.7%. Regarding `O=C(O)CI` [Monoiodoacetic Acid], the “enzyme activity-inhibitory effect (in words)” value is listed as “high enzyme activity-inhibitory effect” in data set [1] and “inhibited” in data set [1] (listed as momoiodo acetic acid). Regarding `CCN1C(=O)C=CC1=O` [N-Ethylmaleimide], the “enzyme activity-inhibitory effect (in words)” value in data set [1] is recorded as “high enzyme activity-inhibitory effect; also recorded: inhibited”. `[Ni+2]` [Ni^2+]: the “Residual Activity” value in data set [1] stood at 67.9%. Turning to `[Pb+2]` [Pb^2+], in data set [1], the “enzyme activity-inhibitory effect (in words)” value is “strongly inhibited the enzyme activity” and the “Residual Activity” value came out at 55.5%.

As to `O=S(=O)(F)Cc1ccccc1` [Phenylmethylsulfone Fluoride], in data set [1], the “enzyme activity-inhibitory effect (in words)” value is recorded as “almost no enzyme activity-inhibitory effect” and the “Residual Activity” value was determined as 96.4%. As to `[Sr+2]` [Sr^2+], in data set [1], the “enzyme activity-inhibitory effect (in words)” value is reported as “almost no enzyme activity-inhibitory effect” and the “Residual Activity” value came to 93.8%. On to `[Zn+2]` [Zn^2+], for which the “Residual Activity” value in data set [1] was 65.0%. In the case of `O=C(O)c1cc[c]([Hg][Cl])cc1` [p-Chloromercuribenzoic Acid], in data set [1], the “enzyme activity-inhibitory effect (in words)” value is on record as “high enzyme activity-inhibitory effect; also recorded: inhibited” and the “Residual Activity” value is given as 10.5%. As to “CBZ-Gln-Gln-Gly: synthetic substrate (Cbz-Gln-Gln-Gly)”, the “enzyme activity with synthetic substrate (in words)” value in data set [2] is recorded as “catalyzed the reaction”. The same measure, in the same setting: then “CBZ-Gly- Gly-Gln-Gly: synthetic substrate, SEQ ID NO: 143 (Cbz-GGQG)”, with “catalyzed the reaction”. glycyl glutamyl glycine [Gly-Gln-Gly]: the “enzyme activity with synthetic substrate (in words)” value in data set [2] was “did not catalyze the reaction”; in data set [2] (listed as glycyl glutamyl glycine) it was “did not show any enzyme activity”.

B1: transglutaminase originating from a microorganism: TGase originating from a microorganism; probably the Streptoverticillium calcium-independent BTG (protein, UniProt P81453 77-407, looked up)
Protein-glutamine …: DSDDRVTPPAEPLDRMPDPYRPSYGRAETVVNNYIRKWQQVYSHRDGRKQQMTEEQREWLSYGCVGVTWVNSGQYPTNRLAFASFDEDRFKNELKNGRPRSGETRAEFEGRVAKESFDEEKGFQRAREVASVMNRALENAHDESAYLDNLKKELANGNDALRNEDARSPFYSALRNTPSFKERNGGNHDPSRMKAVIYSKHFWSGQDRSSSADKRKYGDPDAFRPAPGTGLVDMSRDRNIPRSPTSPGEGFVNFDYGWFGAQTEADADKTVWTHGNHYHAPNGSLGAMHVYESKFRNWSEGYSDFDRGAYVITFIPKSWNTAPDKVKQGWP
On to B1, for which, in data set [3], the “effect of NaCl concentration on enzyme activity (in words)” value is recorded as “did not show any increase”.
